Molecules are shown by their SMILES. Read-outs that look alike come from different tables or passages of the source. A value given as a limit tells only on which side of the number the result lay.

Experiment [1] addresses PRMT5-MEP50 (Homo sapiens, UniProt O14744). Put plainly: PRMT5 Assay (PRMT5 biochemical assay). The protocol: Assays were performed in a 25 μl-volume in 384-well V-bottom polypropylene microplates (Greiner Bio-One, cat. No. 781280) at ambient temperature. Optimized 1× assay buffer was 20 mM Tris-HCl pH 8.0, 1 mM DTT, […]. For compound screening PRMT5-MEP50 (final concentration, f.c.=2.5 nM) was added using a Multidrop Combi (ThermoFisher Scientific, Waltham, Mass.) and preincubated for 5 min. Reactions were started by adding 3′ biotinylated histone H4 peptide acetylated on serine 1 (Ac-[…]-Biotin) (f.c.=100 nM) and 3H-SAM (f.c.=250 nM) substrates. Reactions proceeded for 60 minutes and were quenched with excess non-radioactive SAM (f.c.=15 μM). The reactions were then transferred to streptavidin-coated flashplates and incubated for 2 hours at 25° C. Following two washing cycles with 0.1% Tween-20, the plates were sealed and read on a TopCount (PerkinElmer, Waltham, Mass.) plate-based scintillation counter. For determination of kinetic parameters, reaction times were optimized so that measurements were taken during the initial velocity phase of the reaction.

For experiment [2], the target named is METTL3/METTL14 (Homo sapiens, UniProt Q86U44). Briefly: METTL3-14 Standard Enzyme Assay (METTL3 biochemical assay). The method, then: Assays were performed in a 25 μl-volume in 384-well V-bottom polypropylene microplates (Greiner Bio-One, cat. No. 781280) at ambient temperature. Optimized 1× assay buffer was 20 mM HEPES pH 7.5, 50 mM KCl, 250 μM MgCl2, 1 mM DTT, 0.01% Tween, 0.01% BSG, 0.004 U/μl RNAseOUT (cat. No. 10777019, ThermoFisher Scientific, Waltham, Mass.). For compound screening METTL3/METTL14 (final concentration, f.c.=2.5 nM) was added using a Multidrop Combi (ThermoFisher Scientific, Waltham, Mass.) and preincubated for 5 min. Reactions were started by adding 3′ biotinylated RNA ([…]-biotin) (f.c.=100 nM) and 3H-SAM (f.c.=100 nM) substrates. Reactions proceeded for 30 minutes and were quenched with excess non-radioactive SAM (f.c.=15 μM). The reactions were then transferred to streptavidin-coated flashplates and incubated for 2 hours at 25° C. Following two washing cycles with 0.1% Tween-20, the plates were sealed and read on a TopCount (PerkinElmer, Waltham, Mass.) plate-based scintillation counter. For determination of kinetic parameters, reaction times were optimized so that measurements were taken during the initial velocity phase of the reaction.

The mark [3] stands for this setting: PRMT5 biochemical assay, read-out: PRMT5 IC50.
The mark [4] stands for this setting: METTL3 biochemical assay, read-out: METTL3 IC50.

Sequence of PRMT5-MEP50 (O14744 whole entry): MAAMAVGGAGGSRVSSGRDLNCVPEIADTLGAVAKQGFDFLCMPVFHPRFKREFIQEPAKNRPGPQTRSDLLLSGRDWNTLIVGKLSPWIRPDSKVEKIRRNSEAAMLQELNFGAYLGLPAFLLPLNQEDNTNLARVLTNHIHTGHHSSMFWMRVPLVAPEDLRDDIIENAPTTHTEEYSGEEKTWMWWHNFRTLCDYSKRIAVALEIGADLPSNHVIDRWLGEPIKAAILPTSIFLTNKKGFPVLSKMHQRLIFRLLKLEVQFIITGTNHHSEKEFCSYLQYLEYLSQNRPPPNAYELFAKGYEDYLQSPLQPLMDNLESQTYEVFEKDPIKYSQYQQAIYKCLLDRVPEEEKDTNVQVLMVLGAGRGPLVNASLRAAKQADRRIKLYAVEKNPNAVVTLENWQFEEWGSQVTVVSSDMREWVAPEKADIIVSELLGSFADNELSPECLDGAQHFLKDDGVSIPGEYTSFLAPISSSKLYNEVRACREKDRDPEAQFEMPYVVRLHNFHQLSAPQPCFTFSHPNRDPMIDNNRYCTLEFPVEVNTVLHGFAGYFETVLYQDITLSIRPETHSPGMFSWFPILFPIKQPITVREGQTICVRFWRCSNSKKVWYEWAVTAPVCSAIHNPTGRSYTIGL
Sequence of PRMT5-MEP50 (Q9BQA1 whole entry partner): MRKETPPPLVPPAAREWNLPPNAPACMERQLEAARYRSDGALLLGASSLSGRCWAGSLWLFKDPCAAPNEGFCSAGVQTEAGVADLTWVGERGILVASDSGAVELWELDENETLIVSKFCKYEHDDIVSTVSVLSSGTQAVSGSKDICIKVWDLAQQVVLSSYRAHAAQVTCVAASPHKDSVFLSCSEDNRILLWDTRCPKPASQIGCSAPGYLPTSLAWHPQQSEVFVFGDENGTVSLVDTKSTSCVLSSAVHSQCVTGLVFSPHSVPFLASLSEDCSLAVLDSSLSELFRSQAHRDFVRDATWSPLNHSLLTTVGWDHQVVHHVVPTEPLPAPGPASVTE
Sequence of METTL3/METTL14 (Q86U44 whole entry, species assumed): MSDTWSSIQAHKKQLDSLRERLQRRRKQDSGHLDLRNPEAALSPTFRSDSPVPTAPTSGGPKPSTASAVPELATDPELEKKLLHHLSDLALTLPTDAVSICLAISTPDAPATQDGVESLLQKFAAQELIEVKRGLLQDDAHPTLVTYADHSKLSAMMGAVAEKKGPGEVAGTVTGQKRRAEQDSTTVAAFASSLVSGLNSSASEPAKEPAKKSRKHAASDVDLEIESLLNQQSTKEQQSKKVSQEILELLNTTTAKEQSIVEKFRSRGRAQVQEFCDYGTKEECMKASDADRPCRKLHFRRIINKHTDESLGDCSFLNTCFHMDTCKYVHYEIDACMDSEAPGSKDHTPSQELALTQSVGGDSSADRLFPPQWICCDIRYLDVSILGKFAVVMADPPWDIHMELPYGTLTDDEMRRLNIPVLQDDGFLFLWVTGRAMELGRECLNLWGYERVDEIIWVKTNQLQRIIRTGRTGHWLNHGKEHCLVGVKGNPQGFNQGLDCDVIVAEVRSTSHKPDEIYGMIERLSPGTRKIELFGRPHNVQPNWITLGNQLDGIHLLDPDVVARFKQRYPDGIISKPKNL
Sequence of METTL3/METTL14 (Q9HCE5 whole entry partner, species assumed): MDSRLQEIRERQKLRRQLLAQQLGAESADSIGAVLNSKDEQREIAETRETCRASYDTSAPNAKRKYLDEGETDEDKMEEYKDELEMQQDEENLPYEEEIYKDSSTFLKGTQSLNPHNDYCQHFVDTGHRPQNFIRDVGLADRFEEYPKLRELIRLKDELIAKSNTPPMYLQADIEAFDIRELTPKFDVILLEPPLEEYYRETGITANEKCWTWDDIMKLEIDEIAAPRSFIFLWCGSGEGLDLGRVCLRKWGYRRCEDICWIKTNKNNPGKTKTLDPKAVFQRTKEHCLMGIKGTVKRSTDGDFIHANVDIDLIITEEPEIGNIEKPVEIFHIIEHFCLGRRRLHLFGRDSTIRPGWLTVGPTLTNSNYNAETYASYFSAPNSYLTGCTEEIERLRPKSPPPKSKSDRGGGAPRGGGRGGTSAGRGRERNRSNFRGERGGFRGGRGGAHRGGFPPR

As usually defined, the IC50 is the point on the concentration scale where inhibition reaches its midpoint. As for `CNc1nc2cc(OC[C@H]3O[C@@H](n4cc(-n5ccc(C)n5)c5c(N)ncnc54)C[C@@H]3O)ccc2cc1F` [I-207], the IC50 in experiment [1] and in experiment [2] was > 1000 nM in each case.

As for `Nc1ncnc2c1c(-c1cnccn1)cn2[C@@H]1O[C@H](COc2ccc3ccc(N4CCC4)nc3c2)[C@@H](O)[C@@H]1F` [I-215], the IC50 in experiment [1] was > 1000 nM; in experiment [2], < 10 nM.

For `Cn1ccc(-c2cn([C@H]3C[C@H](O)[C@@H](CCc4ccc5ccc(N6CCC6)nc5c4)O3)c3ncnc(N)c23)n1` [I-194], the half-maximal inhibitory concentration (IC50) was > 1000 nM in experiment [1] and < 10 nM in experiment [2].

Regarding `Nc1cc(OC[C@H]2O[C@@H](n3ccc4c(N)ncnc43)[C@@H](F)[C@@H]2O)ccc1C(=O)N1CCNCC1` [I-175], the IC50 in experiment [1] (setting [3]) and in experiment [2] (setting [4]) was > 1000 nM in each case.

For `Cn1ccc(-c2cn([C@@H]3O[C@H](COc4ccc5ccc(NC67CC(C6)C7)nc5c4)[C@@H](O)[C@@H]3F)c3ncnc(N)c23)n1` [I-200], the IC50 in experiment [1] is 100 to 1000 nM; in experiment [2] it was < 10 nM.

For the compound `CCc1nc2cc(OC[C@H]3O[C@@H](n4cc(-c5ccn(C)n5)c5c(N)ncnc54)[C@@H](F)[C@@H]3O)ccc2o1` [I-168], the IC50 in experiment [1] and in experiment [2] was > 1000 nM in each case.

On to `Cn1ccc(-c2cn([C@@H]3O[C@H](COc4ccc(C(=O)N5CCNCC5)c(N)c4)[C@@H](O)[C@@H]3F)c3ncnc(N)c23)n1` [I-174], for which the IC50 is > 1000 nM in experiment [1] and 100 to 1000 nM in experiment [2].

For `Nc1ncnc2c1ccn2[C@H]1C[C@H](O)[C@@H](COc2ccc3ccc(N4CC(N)C4)nc3c2)O1` [I-184], the IC50 in experiment [1] (setting [3]) fell in the range of 10 to 100 nM; in experiment [2] (setting [4]), 100 to 1000 nM.

On to `CN(c1ccc2ccc(OC[C@H]3O[C@@H](n4cc(-c5ccn(C)n5)c5c(N)ncnc54)[C@@H](F)[C@@H]3O)cc2n1)C1CCC1` [I-202], for which the IC50 in experiment [1] is > 1000 nM; in experiment [2], < 10 nM.

Regarding `Nc1ncnc2c1c([C@@H]1CCCO1)cn2[C@@H]1O[C@H](COc2ccc3ccc(N4CCC4)nc3c2)[C@@H](O)[C@@H]1F` [I-224], the IC50 was 100 to 1000 nM in experiment [1] (setting [3]) and < 10 nM in experiment [2] (setting [4]).

In the case of `CNc1nc2cc(OC[C@H]3O[C@@H](n4cc(-n5cccn5)c5c(N)ncnc54)[C@@H](F)[C@@H]3O)ccc2s1` [I-195], the IC50 is > 1000 nM in experiment [1] and 100 to 1000 nM in experiment [2].

Consider `Nc1ncnc2c1ccn2[C@@H]1O[C@H](CCC2CCNCC2)[C@@H](O)[C@@H]1F` [I-192], for which the results for the IC50 in experiment [1] (setting [3]) and in experiment [2] (setting [4]) were > 1000 nM and 100 to 1000 nM, respectively.

For `CNc1nc2cc(OC[C@H]3O[C@@H](n4cc(-c5ccn(C)n5)c5c(N)ncnc54)[C@@H](F)[C@@H]3O)ccc2o1` [I-173], the half-inhibitory concentration (IC50) is > 1000 nM in experiment [1] and 100 to 1000 nM in experiment [2].

On to `Cc1ccn(-c2cn([C@@H]3O[C@H](COc4ccc5ccc(N6CC(N)C6)nc5c4)[C@@H](O)[C@@H]3F)c3ncnc(N)c23)n1` [I-186], for which the IC50 lay in the range of 100 to 1000 nM in experiment [1] and 10 to 100 nM in experiment [2].

`Nc1ncnc2c1c(-n1cccn1)cn2[C@@H]1C[C@H](CCc2cc3nc(N4CCC4)ccc3cc2F)[C@@H](O)C1` [I-210]: the IC50 in experiment [1] was > 1000 nM; in experiment [2], < 10 nM.

In the case of `Cn1ccc(-c2cn([C@H]3C[C@H](O)[C@@H](COc4ccc5ccc(N6CC(N)C6)nc5c4)O3)c3ncnc(N)c23)n1` [I-182], the IC50 was > 1000 nM in experiment [1] and < 10 nM in experiment [2].

Regarding `Nc1ncnc2c1ccn2[C@@H]1O[C@H](COc2ccc3ccc(N4CC(N)C4)nc3c2)[C@@H](O)[C@@H]1F` [I-188], the IC50 is > 1000 nM in experiment [1] (setting [3]) and 10 to 100 nM in experiment [2] (setting [4]).

Turning to `Cc1ccn(-c2cn([C@@H]3O[C@H](COc4ccc5ccc(N6CC(O)C6)nc5c4)[C@@H](O)[C@@H]3F)c3ncnc(N)c23)n1` [I-187], the IC50 in experiment [1] is > 1000 nM; in experiment [2] it was < 10 nM.

For `CCNc1ccc2ccc(CC[C@H]3C[C@@H](n4cc(-n5cccn5)c5c(N)ncnc54)C[C@@H]3O)cc2n1` [I-209], in experiment [2], the IC50 was < 10 nM.

Take `CCc1cc(N(C)C2CC2)c2ccc(OC[C@H]3O[C@@H](n4ccc5c(N)ncnc54)C[C@@H]3O)cc2n1` [I-161]: the IC50 in experiment [2] (setting [4]) lay within 10 to 100 nM.

The record behind these values is patent US20230027361A1, “METTL3 MODULATORS” (priority 2019, published 2023).
